These are literature values, as cited in patent US20210319872A1, “DRUG AND DEVICE COMBINATION PRODUCTS WITH IMPROVED SAFETY AND EFFICACY PROFILES” (priority 2016, published 2021).

Read-outs that look alike come from different tables or passages of the source. Where only a bound is given, the exact number is not on record here.

With `CCCC(CCC)C(=O)O.CCCC(CCC)C(=O)[O-].[Na+]` [Divalproex (Depakote)], where the note is “in vivo”, the Asthenia entry was “Neurologic: Asthenia (6% to 27%), Dizziness (up to 25%), Feeling”; the Backache is recorded as 1% to less than 5%; migraine, 8%); the “Common side effects, listed without incidence” value is recorded as “Ophthalmic: Amblyopia, Blurred vision, Diplopia (16%)”; the Diplopia entry was “Ophthalmic: Amblyopia, Blurred vision, Diplopia (16%)”. Besides, under “in vivo”, the Dizziness result is reported as “Neurologic: Asthenia (6% to 27%), Dizziness (up to 25%), Feeling”; the Feeling nervous result is “nervous (up to 11%), Headache (31%), Insomnia (up to 15%),”; the Headache entry is “nervous (up to 11%), Headache (31%), Insomnia (up to 15%),”; the Indigestion is 23%), Indigestion (8% to 11%), Loss of appetite (4% to 12%),. Under “in vivo”, the Infectious disease result is “Other: Infectious disease (12% to 20%), Influenza (12%)”; the Influenza entry was “Other: Infectious disease (12% to 20%), Influenza (12%)”; the Insomnia entry is on record as “nervous (up to 11%), Headache (31%), Insomnia (up to 15%),”; the Nausea entry is “Nausea (26% to 48%), Vomiting (15% to 27%)”. For the same compound, under “in vivo”, the Ototoxicity - deafness result is given as “Otic: Ototoxicity - deafness (greater than 1% to less than 5%)”; the Palpitations entry is “Cardiovascular: Palpitations (greater than 1% to less than 5%),”; the Pancreatitis entry is recorded as “Gastrointestinal: Pancreatitis (greater than 1% to less than 5%)”; the Somnolence entry is reported as “Somnolence (Adult, 7% to 30%; pediatric, greater than 5%),”. Besides, for the setting “in vivo”, the Tachycardia result is on record as “Tachycardia (greater than 1% to less than 5%)”; the “Thrombocytopenia, Dose-related” value is reported as “Dose-related (1% to 27%)”; the Tremor entry is on record as “Tremor (1% to 57%)”; the Vomiting entry is “Nausea (26% to 48%), Vomiting (15% to 27%)”.
In the case of `CCOC(=O)[C@H](CCc1ccccc1)N[C@@H](C)C(=O)N1Cc2cc(OC)c(OC)cc2C[C@H]1C(=O)O` [Moexipril (Univasc)], under “in vivo”, the “Common side effects, listed without incidence” value is listed as “Other: Influenza-like symptoms”; the Cough entry is reported as “Respiratory: Cough (6.1%)”; the Diarrhea result is given as “Gastrointestinal: Diarrhea (3.1%)”; the Dizziness result is “Neurologic: Dizziness (4.3%)”.
Regarding `CNC(=O)c1cc(Oc2ccc(NC(=O)Nc3ccc(Cl)c(C(F)(F)F)c3)cc2)ccn1` [Nexavar], for the setting “hepatocellular carcinoma”, the Abdominal pain is 31%; the Acral erythema result is recorded as “Dermatologic: Acral erythema (hepatocellular carcinoma, 21%;”; the Alopecia was 14%; the Hypoalbuminemia was 59%. Moreover, where the note is “hepatocellular carcinoma”, the Hypocalcemia is on record as 27%; the Lymphocytopenia entry was “hepatocellular carcinoma, 47%), Thrombocytopenia (renal cell”; the Thrombocytopenia was 46%; the Weight decreased result was “decreased (hepatocellular carcinoma, 30%; renal cell carcinoma,”. For the same compound, for the setting “in vivo”, the Congestive heart failure entry is given as “Cardiovascular: Congestive heart failure (1.9%), Hypertension,”; the Hepatitis is reported as under 0.1%; the “Hypertension, All grades” value is given as “Cardiovascular: Hypertension, All grades (19.1%)”; the “Hypertension, Grade 3 or 4” value was 4.3%. Besides, for the setting “in vivo”, the Infectious disease entry is given as “Immunologic: Infectious disease (10% or greater)”, the Pain was at least 10%, the “Prolonged QT interval” value is given as “(Less than 0.1%)” and the Rash was at most 35%. Under “listed without frequency”, the “Common side effect, Dermatologic” value is “Peeling of skin”; the “Serious side effect, Dermatologic” value is “Stevens-Johnson syndrome”; the “Serious side effect, Gastrointestinal” value was “Gastrointestinal: Gastrointestinal hemorrhage, Gastrointestinal”; the “Serious side effect, Respiratory” value was “Respiratory tract hemorrhage”. In addition, where the note is “renal cell carcinoma”, the Abdominal pain entry is recorded as “Gastrointestinal: Abdominal pain (renal cell carcinoma, 11%;”; the Acral erythema was 30%; the Alopecia is given as 27%; the Hemorrhage result is listed as “Hematologic: Hemorrhage (renal cell carcinoma, 15.3%; thyroid”. Under “renal cell carcinoma”, the Hypocalcemia is given as 12%; the Lymphocytopenia entry is on record as “Hematologic: Lymphocytopenia (renal cell carcinoma, 23%;”; the Thrombocytopenia is 12%; the Weight decreased is 10%. Under “thyroid carcinoma”, the “ALT/SGPT level raised, Grade 3 or higher” value is on record as “carcinoma, 4%), AST/SGOT level raised, Grade 3 or 4 (thyroid”; the “ALT/SGPT level raised, all grades” value is on record as 59%), AST/SGOT level raised, All grades (thyroid carcinoma,; the “AST/SGOT level raised, All grades” value is 54%); the “AST/SGOT level raised, Grade 3 or 4” value is recorded as 2%. Under “thyroid carcinoma”, the Abdominal pain was 20%, the Acral erythema is 69%, the Alopecia is on record as 67% and the Decrease in appetite is 30%. Moreover, for the setting “thyroid carcinoma”, the Hemorrhage result is “carcinoma, 17.4%)”; the Hypocalcemia was 36%; the “Raised TSH level” value is 41%; the “Squamous cell carcinoma of skin” value is 3%. Also, the Weight decreased (thyroid carcinoma) is 49%.
For `CN[C@H]1CC[C@@H](c2ccc(Cl)c(Cl)c2)c2ccccc21` [Sertraline (Zoloft)], for the setting “in vivo”, the Abnormal ejaculation entry was “Reproductive: Abnormal ejaculation (7% to 19%), Reduced libido”; the Constipation result is “Gastrointestinal: Constipation (3% to 8%), Diarrhea (13% to 24%),”; the Diarrhea entry is listed as “Gastrointestinal: Constipation (3% to 8%), Diarrhea (13% to 24%),”; the Dizziness result is “Neurologic: Dizziness (6% to 17%), Headache (25%), Insomnia”. For the same compound, where the note is “in vivo”, the Fatigue result is listed as “Other: Fatigue (10% to 16%)”; the Headache entry is “Neurologic: Dizziness (6% to 17%), Headache (25%), Insomnia”; the Indigestion result was “Indigestion (6% to 13%), Nausea (13% to 30%), Nausea and”; the Insomnia entry is reported as “(12% to 28%), Somnolence (2% to 15%), Tremor (5% to 11%)”. Moreover, where the note is “in vivo”, the Nausea entry is recorded as “Indigestion (6% to 13%), Nausea (13% to 30%), Nausea and”; the Nausea and vomiting result is on record as “vomiting (2% to 30%)”; the Reduced libido entry was “(up to 11%)”; the Somnolence result is “(12% to 28%), Somnolence (2% to 15%), Tremor (5% to 11%)”. Also, the Tremor result (in vivo) is reported as “(12% to 28%), Somnolence (2% to 15%), Tremor (5% to 11%)”.
With `CCCN[C@H]1CCc2nc(N)sc2C1` [Pramipexole (Mirapex)], for the setting “in vivo”, the Amnesia entry is given as “Neurologic: Amnesia (4% to 6%), Asthenia (Immediate-release,”; the Asthenia is recorded as 10% to 14%; extended-release, 3%), Confusion (4% to 10%),; the Confusion is 10% to 14%; extended-release, 3%), Confusion (4% to 10%),; the Dizziness entry is given as “Dizziness (Immediate-release, 3% to 26%; extended-release, 2% to”. Also, under “in vivo”, the Dream disorder was ≤ 12%), Dream disorder (Up to 11%), Dyskinesia (Immediate-; the Dyskinesia entry is recorded as “release, 18% to 47%; extended-release, 17%), Extrapyramidal”; the Extrapyramidal movements result is recorded as “movements (28%), Headache (Immediate-release, 4% to 16%;”; the Hallucinations entry was “Psychiatric: Hallucinations (5% to 17%)”. Also, under “in vivo”, the Sleep attack entry is recorded as “Neurologic: Sleep attack (2% to 6%), Somnolence (Immediate-” and the Somnolence result is “release, 6% to 33%; extended-release, 15% to 36%)”.
Turning to `CCCC(C)C1(CC)C(=O)NC(=O)NC1=O` (stereo not shown) [Nembutal (pentobarbital)], for the setting “in vivo”, the Agitation entry was “Psychiatric: Agitation (less than 1%)”; the Apnea entry is listed as “Respiratory: Apnea (less than 1%), Hypoventilation (less than 1%)”; the Confusion result is on record as “Neurologic: Confusion (less than 1%), Dizziness (less than 1%),”; the Dizziness entry was “Neurologic: Confusion (less than 1%), Dizziness (less than 1%),”. Under “in vivo”, the Hypoventilation entry is listed as “Respiratory: Apnea (less than 1%), Hypoventilation (less than 1%)”; the Injury of liver result is listed as “Hepatic: Injury of liver (less than 1%)”; the Megaloblastic anemia result is “Hematologic: Megaloblastic anemia (less than 1%)”; the Somnolence entry was “Somnolence (1% to 3%)”. For the same compound, the Stevens-Johnson syndrome result (in vivo) was “Dermatologic: Stevens-Johnson syndrome (less than 1%)”.
For `COc1ccc2c3c1O[C@H]1C(=O)CC[C@H]4[C@@H](C2)N(C)CC[C@]314.O=C(O)C(O)C(O)C(=O)O` [Hysingla ER], where the note is “in vivo”, the Abdominal pain result was “Gastrointestinal: Abdominal pain (1% to less than 5%),”; the Constipation result was “Constipation (3% to 11%), Nausea (7% to 10%), Vomiting (3% to”; the Difficulty swallowing result is listed as “Gastrointestinal: Difficulty swallowing (less than 1%)”; the Dizziness entry is listed as “Neurologic: Dizziness (2% to 3%), Headache (2% to 4%),”. For the same compound, where the note is “in vivo”, the Fatigue entry was “Other: Fatigue (1% to 4%)”; the Headache entry is reported as “Neurologic: Dizziness (2% to 3%), Headache (2% to 4%),”; the Hypotension result is given as “Cardiovascular: Hypotension (less than 1%), Orthostatic”; the Opioid withdrawal entry is on record as “Opioid withdrawal (less than 1%)”. For the same compound, where the note is “in vivo”, the Orthostatic hypotension entry is on record as “hypotension (less than 1%), Prolonged QT interval, Syncope”; the Peripheral edema result was “Cardiovascular: Peripheral edema (1% to less than 5%%)”; the Pruritus result is on record as “Dermatologic: Pruritus (0% to less than 5%)”; the “Serious side effect, Cardiovascular” value is recorded as “hypotension (less than 1%), Prolonged QT interval, Syncope”. Besides, where the note is “in vivo”, the “Serious side effect, Neurologic” value is given as “Neurologic: Raised intracranial pressure, Seizure”; the “Serious side effect, Other” value is recorded as “Other: Drug withdrawal syndrome in neonate of dependent mother,”; the “Serious side effect, Respiratory” value is given as “Respiratory: Respiratory depression”; the Somnolence result is “Somnolence (1% to 5%), Tremor (3%)”. For the same compound, under “in vivo”, the Spasm entry is reported as “Musculoskeletal: Spasm (1% to less than 5%)”; the Tremor result is “Somnolence (1% to 5%), Tremor (3%)”; the Upper respiratory infection entry was “Respiratory: Upper respiratory infection (1% to 3%)”; the “Urinary tract infectious disease” value is “Renal: Urinary tract infectious disease (1% to 5%)”. The Xerostomia (in vivo) was 6%), Xerostomia (1% to less than 5%).
